Experimental data published in US20080207752A1, “Poly (epsilon-caprolactone-co-methylmethacrylate), method for preparing the same using super critical fluid, and method for preparing therapeutic agent for skin diseases such as acne, atopy and athlete's foot comprising the same” (priority 2007, published 2008).

Assay: Particle size measured using a particle size analyzer
Format: physicochemical
Conditions: before supercritical processing
Method: At first, pretreated salicylic acid is 50-100 micron. In Examples, the size of salicylic acid particles prepared in following manners was measured using a particle size analyzer. Spherical nanoparticles of which the particle size is in the range of 50 to 300 nm can be obtained according to the presence of a poly(ε-caprolactone-co-methylmethacrylate) as a biodegradable polymer and operating conditions in the reactor.
As shown in the following Table 1, the present Examples represent the operating conditions of the reactor in the step of formation of a spherical structure. The temperature and the pressure of the reactor must be each above 304.2 K and 73.8 bar. The operating parameters in the reactor are the temperature and the pressure in reactor, the amount of carbon dioxide as a supercritical fluid, and the amount of the mixed solution prepared in the preparation step. In Example 1, the mixed solution contains salicylic acid of 0.0016% by weight alone without a biodegradable polymer. In Example 2 to 8, the solution contains both of salicylic acid of 0.0016% by weight and the poly(ε-caprolactone-co-methylmethacrylate) of 0.0014% by weight as a biodegradable polymer. […] In Examples 1 and 3, the change was measured at 313K and 323K by adjusting the reactor temperature. […]

- particle size of pretreated salicylic acid: 50-100 micron
Compound: O=C(O)c1ccccc1O [salicylic acid]
